Assay results published in patent US20240376099A1, “COMPOUNDS AND COMPOSITIONS AS INHIBITORS OF ENDOSOMAL TOLL-LIKE RECEPTORS” (Novartis AG, priority 2016, published 2024).

molecular target: T1, TLR9 (Homo sapiens, UniProt Q9NR96); assay: huPBMC TLR9 Antagonist IFNα Assay; format: cell-based; details: human PBMCs stimulated with ODN2216 0.3 μM, 14-16 hrs; IFNα2b AlphaLISA read-out
T1 construct: Fresh blood was collected from normal human donors; endogenous in cells; host or cells: human PBMCs from fresh donor blood
T1 sequence (Q9NR96 26-1032): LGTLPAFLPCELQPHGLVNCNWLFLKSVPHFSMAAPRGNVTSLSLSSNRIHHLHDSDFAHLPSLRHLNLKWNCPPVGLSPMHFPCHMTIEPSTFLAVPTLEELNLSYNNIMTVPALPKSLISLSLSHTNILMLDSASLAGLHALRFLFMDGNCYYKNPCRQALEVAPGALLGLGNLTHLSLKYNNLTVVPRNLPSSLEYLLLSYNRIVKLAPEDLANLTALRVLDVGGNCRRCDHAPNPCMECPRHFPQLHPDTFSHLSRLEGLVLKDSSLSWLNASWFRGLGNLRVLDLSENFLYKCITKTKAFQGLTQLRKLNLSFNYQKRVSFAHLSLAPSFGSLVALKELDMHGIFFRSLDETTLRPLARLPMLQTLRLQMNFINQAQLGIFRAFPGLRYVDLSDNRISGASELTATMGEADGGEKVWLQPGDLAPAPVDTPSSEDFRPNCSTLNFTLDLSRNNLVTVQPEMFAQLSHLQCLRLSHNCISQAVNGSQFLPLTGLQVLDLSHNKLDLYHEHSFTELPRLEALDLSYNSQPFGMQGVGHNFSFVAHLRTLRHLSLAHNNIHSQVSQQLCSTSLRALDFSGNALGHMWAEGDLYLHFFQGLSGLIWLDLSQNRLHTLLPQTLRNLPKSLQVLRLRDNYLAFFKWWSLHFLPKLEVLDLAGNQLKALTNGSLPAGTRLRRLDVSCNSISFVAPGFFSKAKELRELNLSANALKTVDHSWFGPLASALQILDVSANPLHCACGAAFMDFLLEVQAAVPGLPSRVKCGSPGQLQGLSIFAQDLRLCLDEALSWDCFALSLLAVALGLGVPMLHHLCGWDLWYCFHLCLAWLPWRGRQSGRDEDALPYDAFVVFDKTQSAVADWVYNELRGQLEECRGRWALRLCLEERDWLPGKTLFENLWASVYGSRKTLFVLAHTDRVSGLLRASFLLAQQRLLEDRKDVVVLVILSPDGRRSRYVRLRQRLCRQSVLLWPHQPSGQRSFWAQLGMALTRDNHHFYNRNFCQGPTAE
In short: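 Human PBMCs from fresh donor blood (150,000 cells/well) stimulated 14–16 h at 37 °C with DOTAP-complexed ssRNA40 (final 1 μg/ml for TLR8, 10 μg/mL for TLR7) or ODN2216 (final 0.3 μM, TLR9), 0.25% DMSO, ten-point 1/3 compound dilutions. Supernatant IL-6 read by HTRF (TLR8); IFNα by IFNα2b AlphaLISA (TLR7/TLR9).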

IC50 [µM]	SMILES
> 10	Cc1cc(N2CCc3c(c(C)nn3CC34CCC(NC(=O)C5CNC5)(CC3)CC4)C2)c2cnn(C)c2n1 [compound 131, N-(4-((5-(1,6-dimethyl-1H-pyrazolo[3,4-b]pyridin-4-yl)-3-methyl-4,5,6,7-tetrahydro-1H-pyrazolo[4,3-c]pyridin-1-yl)methyl)bicyclo[2.2.2]octan-1-yl)azetidine-3-carboxamide]
0.26	CCN(C)CC(=O)NC12CCC(Cn3nc(C)c4c3CCN(c3cc(C)nc5c3cnn5C)C4)(CC1)CC2 [compound 132, N-(4-((5-(1,6-dimethyl-1H-pyrazolo[3,4-b]pyridin-4-yl)-3-methyl-4,5,6,7-tetrahydro-1H-pyrazolo[4,3-c]pyridin-1-yl)methyl)bicyclo[2.2.2]octan-1-yl)-2-(ethyl(methyl)amino)acetamide]
0.299	[2H]C([2H])([2H])N(CC(=O)NC12CCC(Cn3nc(C)c4c3CCN(c3cc(C)nc5c3cnn5C)C4)(CC1)CC2)C([2H])([2H])[2H] [compound 134, 2-(bis(trideuteromethyl)amino)-N-(4-((5-(1,6-dimethyl-1H-pyrazolo[3,4-b]pyridin-4-yl)-3-methyl-4,5,6,7-tetrahydro-1H-pyrazolo[4,3-c]pyridin-1-yl)methyl)bicyclo[2.2.2]octan-1-yl)acetamide]
1.28	Cc1cc(N2CCc3c(c(C)nn3CC34CCC(NCC5(CO)COC5)(CC3)CC4)C2)c2cnn(C)c2n1 [compound 137, (3-(((4-((5-(1,6-dimethyl-1H-pyrazolo[3,4-b]pyridin-4-yl)-3-methyl-4,5,6,7-tetrahydro-1H-pyrazolo[4,3-c]pyridin-1-yl)methyl)bicyclo[2.2.2]octan-1-yl)amino)methyl)oxetan-3-yl)methanol]
5.17	CCn1ncc2c(N3CCc4c(c(C)nn4CC45CCC(NC(=O)[C@@H]6COCCN6)(CC4)CC5)C3)cc(C)nc21 [compound 141, (S)-N-(4-((5-(1-ethyl-6-methyl-1H-pyrazolo[3,4-b]pyridin-4-yl)-3-methyl-4,5,6,7-tetrahydro-1H-pyrazolo[4,3-c]pyridin-1-yl)methyl)bicyclo[2.2.2]octan-1-yl)morpholine-3-carboxamide]
> 6.59	CNCCC(=O)NC12CCC(Cn3nc(C)c4c3CCN(c3cc(C)nc5c3cnn5C)C4)(CC1)CC2 [compound 142, N-(4-((5-(1,6-dimethyl-1H-pyrazolo[3,4-b]pyridin-4-yl)-3-methyl-4,5,6,7-tetrahydro-1H-pyrazolo[4,3-c]pyridin-1-yl)methyl)bicyclo[2.2.2]octan-1-yl)-3-(methylamino)propanamide]
0.841	Cc1cc(N2CCc3c(c(C)nn3CC34CCC(NC5CCC5)(CC3)CO4)C2)c2cnn(C)c2n1 [compound 143, N-cyclobutyl-1-((5-(1,6-dimethyl-1H-pyrazolo[3,4-b]pyridin-4-yl)-3-methyl-4,5,6,7-tetrahydro-1H-pyrazolo[4,3-c]pyridin-1-yl)methyl)-2-oxabicyclo[2.2.2]octan-4-amine]
0.139	Cc1nn(CC23CCC(NC4CCC4)(CC2)CC3)c2c1CN(c1ccnc(-c3ccccc3)c1)CC2 [compound 144, N-cyclobutyl-4-((3-methyl-5-(2-phenylpyridin-4-yl)-4,5,6,7-tetrahydro-1H-pyrazolo[4,3-c]pyridin-1-yl)methyl)bicyclo[2.2.2]octan-1-amine]
> 10	Cc1cc(N2CCc3c(c(C)nn3CC34CCC(NC(=O)OC(C)(C)C)(CC3)C4)C2)c2cnn(C)c2n1 [compound 148, tert-butyl (4-((5-(1,6-dimethyl-1H-pyrazolo[3,4-b]pyridin-4-yl)-3-methyl-4,5,6,7-tetrahydro-1H-pyrazolo[4,3-c]pyridin-1-yl)methyl)bicyclo[2.2.1]heptan-1-yl)carbamate]
